# From patent US6303797A, “Sesterterpene derivatives exhibiting antifungal activities” (Banyu Pharmaceutical Co., Ltd., priority 1998, dated 2001)
# Tested on: Trichosporon cutaneum IFO 1189
# Assay: Antifungal activity, minimum growth inhibition concentration (MIC), agar plate dilution method
# Type: cell-based
# Details: for MIC: Cutaneotrichosporon cutaneum, IFO1189, 48 h
# [1] = agar plate dilution method, Trichosporon cutaneum IFO 1189, culture at 37° C. for 2 days, yeast-nitrogen base with 1% glucose
Structure (SMILES),MIC (minimum growth inhibition concentration) [1] [µg/mL],antifungal activity (in words) (fungi against which BE-49385 A does not show an antifungal activity),MIC [1] [µg/mL]
"C=C1C2CC3C(C(C)C)C(OC(=O)CC(C)(O)CC(C)CC)CC3(C)CC2C(C)=CCC2C(C)OC(=O)C(O)C12O (stereo not shown) [BE-49385 A, reference compound]",≥ 100,does not show an antifungal activity,–
"C=C1C2CC3C(C(C)C)C(OC(=O)CCC)CC3(C)CC2C(C)=CCC2C(C)OC(=O)C(O)C12O (stereo not shown) [Compound 5, 1,13a-dihydroxy-11-isopropyl-4,7,8a-trimethyl-13-methylene-2-oxo-1,2,4,4a,5,7a,8,8a,9,10,11,11a,12,12a,13,13a-hexadecahydroindeno[5',6':4,5]cycloocta[1,2-c]pyran-10-yl butanoate]",–,–,6.25
"C=C1C2CC3C(C(C)C)C(OC(=O)CC(C)C)CC3(C)CC2C(C)=CCC2C(C)OC(=O)C(O)C12O (stereo not shown) [Compound 9, 1,13a-dihydroxy-11-isopropyl-4,7,8a-trimethyl-13-methylene-2-oxo-1,2,4,4a,5,7a,8,8a,9,10,11,11a,12,12a,13,13a-hexadecahydroindeno[5',6':4,5]cycloocta[1,2-c]pyran-10-yl 3-methylbutanoate]",–,–,6.25
"C=C1C2CC3C(C(C)C)C(OC(=O)C(O)CCCC)CC3(C)CC2C(C)=CCC2C(C)OC(=O)C(O)C12O (stereo not shown) [Compound 14, 1,13a-dihydroxy-11-isopropyl-4,7,8a-trimethyl-13-methylene-2-oxo-1,2,4,4a,5,7a,8,8a,9,10,11,11a,12,12a,13,13a-hexadecahydroindeno[5',6':4,5]cycloocta[1,2-c]pyran-10-yl 2-hydroxyhexanoate]",–,–,12.5
"C=C1C2CC3C(C(C)C)C(OC(=O)c4ccc(F)cc4)CC3(C)CC2C(C)=CCC2C(C)OC(=O)C(O)C12O (stereo not shown) [Compound 23, 1,13a-dihydroxy-11-isopropyl-4,7,8a-trimethyl-13-methylene-2-oxo-1,2,4,4a,5,7a,8,8a,9,10,11,11a,12,12a,13,13a-hexadecahydroindeno[5',6':4,5]cycloocta[1,2-c]pyran-10-yl 4-fluorobenzoate]",–,–,12.5
"C=C1C2CC3C(C(C)C)C(OC(=O)c4ccc(Cl)nc4)CC3(C)CC2C(C)=CCC2C(C)OC(=O)C(O)C12O (stereo not shown) [Compound 26, 1,13a-dihydroxy-11-isopropyl-4,7,8a-trimethyl-13-methylene-2-oxo-1,2,4,4a,5,7a,8,8a,9,10,11,11a,12,12a,13,13a-hexadecahydroindeno[5',6':4,5]cycloocta[1,2-c]pyran-10-yl 6-chloronicotinate]",–,–,3.13
"C=C1C2CC3C(C(C)C)C(OS(=O)(=O)/C=C/c4ccccc4)CC3(C)CC2C(C)=CCC2C(C)OC(=O)C(O)C12O (stereo not shown) [Compound 31, 1,13a-dihydroxy-11-isopropyl-4,7,8a-trimethyl-13-methylene-2-oxo-1,2,4,4a,5,7a,8,8a,9,10,11,11a,12,12a,13,13a-hexadecahydroindeno[5',6':4,5]cycloocta[1,2-c]pyran-10-yl (E)-2-phenyl-1-ethene-1sulfonate]",–,–,12.5
"C=C1C2CC3C(C(C)C)C(OS(=O)(=O)CCCC)CC3(C)CC2C(C)=CCC2C(C)OC(=O)C(O)C12O (stereo not shown) [Compound 32, 1,13a-dihydroxy-11-isopropyl-4,7,8a-trimethyl-13-methylene-2-oxo-1,2,4,4a,5,7a,8,8a,9,10,11,11a,12,12a,13,13a-hexadecahydroindeno[5',6':4,5]cycloocta[1,2-c]pyran-10-yl 1butanesulfonate]",–,–,6.25
"C=C1C2CC3C(C(C)C)C(OC(=O)NCC)CC3(C)CC2C(C)=CCC2C(C)OC(=O)C(O)C12O (stereo not shown) [Compound 33, 1,13a-dihydroxy-11-isopropyl-4,7,8a-trimethyl-13-methylene-2-oxo-1,2,4,4a,5,7a,8,8a,9,10,11,11a,12,12a,13,13a-hexadecahydroindeno[5',6':4,5]cycloocta[1,2-c]pyran-10-yl N-ethylcarbamate]",–,–,6.25
"C=C1C2CC3C(C(C)C)C(OC(=O)Nc4ccc(F)cc4)CC3(C)CC2C(C)=CCC2C(C)OC(=O)C(O)C12O (stereo not shown) [Compound 39, 1,13a-dihydroxy-11-isopropyl-4,7,8a-trimethyl-13-methylene-2-oxo-1,2,4,4a,5,7a,8,8a,9,10,11,11a,12,12a,13,13a-hexadecahydroindeno[5',6':4,5]cycloocta[1,2-c]pyran-10-yl N-(4-fluorophenyl)carbamate]",–,–,3.13
"C=C1C2CC3C(C(C)C)C(OC(=O)NCc4ccccc4)CC3(C)CC2C(C)=CCC2C(C)OC(=O)C(O)C12O (stereo not shown) [Compound 40, 1,13a-dihydroxy-11-isopropyl-4,7,8a-trimethyl-13-methylene-2-oxo-1,2,4,4a,5,7a,8,8a,9,10,11,11a,12,12a,13,13a-hexadecahydroindeno[5',6':4,5]cycloocta[1,2-c]pyran-10-yl N-benzylcarbamate]",–,–,6.25
"C=C1C2CC3C(C(C)C)C(OC(=O)NC4CCCCO4)CC3(C)CC2C(C)=CCC2C(C)OC(=O)C(O)C12O (stereo not shown) [Compound 42, 1,13a-dihydroxy-11-isopropyl-4,7,8a-trimethyl-13-methylene-2-oxo-1,2,4,4a,5,7a,8,8a,9,10,11,11a,12,12a,13,13a-hexadecahydroindeno[5',6':4,5]cycloocta[1,2-c]pyran-10-yl N-tetrahydro-2H-pyran-2-ylcarbamate]",–,–,12.5
"C=C1C2CC3C(C(C)C)C(OC(=O)Nc4ccccc4)CC3(C)CC2C(C)=CCC2C(C)OC(=O)C(O)C12O (stereo not shown) [Compound 43, 1,13a-dihydroxy-11-isopropyl-4,7,8a-trimethyl-13-methylene-2-oxo-1,2,4,4a,5,7a,8,8a,9,11a,12,12a,13,13a-hexadecahydroindeno[5',6':4,5]cycloocta [1,2-c]pyran-10-yl N-phenylcarbamate]",–,–,3.13
"C=C1C2CC3C(C(C)C)C(OC(=O)NC4CCCCC4)CC3(C)CC2C(C)=CCC2C(C)OC(=O)C(O)C12O (stereo not shown) [Compound 46, 1,13a-dihydroxy-11-isopropyl-4,7,8a-trimethyl-13-methylene-2-oxo-1,2,4,4a,5,7a,8,8a,9,10,11,11a,12,12a,13,13a-hexadecahydroindeno[5',6':4,5]cycloocta[1,2-c]pyran-10-yl N-cyclohexylcarbamate]",–,–,12.5
"C=C1C2CC3C(C(C)C)C(NC(=O)CC(C)(O)CC(C)CC)CC3(C)CC2C(C)=CCC2C(C)OC(=O)C(O)C12O (stereo not shown) [Compound 54, N'-(1,13a-dihydroxy-11-isopropyl-4,7,8a-trimethyl-13-methylene-2-oxo-1,2,4,4a,5,7a,8,8a,9,10,11,11a,12,12a,13,13a-hexadecahydroindeno[5',6': 4,5]cycloocta [1,2-c]pyran-10-yl)-3-hydroxy-3,5-dimethylheptanamide]",–,–,12.5
"C=C1C2CC3C(C(C)C)C(NC(=O)Cc4csc5ccccc45)CC3(C)CC2C(C)=CCC2C(C)OC(=O)C(O)C12O (stereo not shown) [Compound 64, N'-(1,13a-dihydroxy-11-isopropyl-4,7,8a-trimethyl-13-methylene-2-oxo-1,2,4,4a,5,7a,8,8a,9,10,11,11a,12,12a,13,13a-hexadecahydroindeno[5',6': 4,5]cycloocta[1,2-c]pyran-10-yl)-3-benzo[b]thienylacetamide]",–,–,6.25
"C=C1C2CC3C(C(C)C)C(NC(=O)Cc4ccc(Cl)cc4)CC3(C)CC2C(C)=CCC2C(C)OC(=O)C(O)C12O (stereo not shown) [Compound 65, N'-(1,13a-dihydroxy-11-isopropyl-4,7,8a-trimethyl-13-methylene-2-oxo-1,2,4,4a,5,7a,8,8a,9,10,11,11a,12,12a,13,13a-hexadecahydroindeno[5',6': 4,5]cycloocta[1,2-c]pyran-10-yl)-4-chlorophenylacetamide]",–,–,6.25
"C[C@@H]1[C@H](O)[C@@H](C)/C=C/C=C/C=C/C=C/C=C/C=C/C=C/[C@H](O[C@@H]2O[C@H](C)[C@@H](O)[C@H](N)[C@@H]2O)C[C@@H]2O[C@](O)(C[C@@H](O)C[C@@H](O)[C@H](O)CC[C@@H](O)C[C@@H](O)CC(=O)O[C@H]1C)C[C@H](O)[C@H]2C(=O)O [amphotericin B, reference compound]",–,–,≥ 100
